According to patent publication US20240285626A1, “INFIGRATINIB FOR TREATMENT OF FGFR3-RELATED SKELETAL DISEASES DURING PREGNANCY” (INSERM (INSTITUT NATIONAL DE LA SANTÉ ET DE LA RECHERCHE …, priority 2018, published 2024):

Tests used:
[1] = system: Fgfr3Y367C/+ pups exhibiting dwarfism; settings: Komla-Ebri et al 2016; Biosse Duplan et al 2016; cited from earlier work
Fgfr3Y367C/+ pups = format: in vivo, mice
Procedure: We treated pregnant female Fgfr3^Neo/Y367C mice that were mated with Cre^CMV/+ male mice (Pannier, S., Couloigner, V., Messaddeq, N., Elmaleh-Bergès, M., Munnich, A., Romand, R., & Legeai-Mallet, L. (2009). Activating Fgfr3 Y367C. mutation causes hearing loss and inner ear defect in a mouse model of chondrodysplasia. Biochimica et Biophysica Acta (BBA)-Molecular Basis of Disease, 1792(2), 140-147.). We injected BGJ398 (4 mg/kg) subcutaneously in 5 pregnant mice at day E14.5 continuing daily through day 1 (after birth). The pregnant mice received 5 injections of BGJ398 before delivery. We applied isofluorane inhalation to the pregnant mice during 20 seconds before the subcutaneous injections. All the pups were analyzed at day 1 after birth. At necropsy, all the long bones were measured and embedded in paraffin and were submitted to histology and immunology.

[2] = Fgfr3Y367C/+ pups, day 1 after birth, mothers 4 mg/kg s.c. daily from E14.5, vs vehicle
[3] = femur histology, H&E staining, vs vehicle, data not shown

Q: Which “pathological hallmarks of ACH” value [1] does the source give for CCN1CCN(c2ccc(Nc3cc(N(C)C(=O)Nc4c(Cl)c(OC)cc(OC)c4Cl)ncn3)cc2)CC1 [BGJ398, 3-(2,6-dichloro-3,5-dimethoxyphenyl)-1-[6-[4-(4-ethylpiperazin-1-yl)anilino]pyrimidin-4-yl]-1-methylurea] here?
A: corrects pathological hallmarks of ACH

Q: And the “skeletal phenotype at birth” value (Fgfr3Y367C/+ pups; 4 Fgfr3Y367C/+ pups that received BGJ398 vs 5 that received vehicle)?
A: improvement of the skeletal phenotype

Q: And the “length of the upper limbs (humerus, ulna, radius), in words” value (Fgfr3Y367C/+ pups; FIG. 1A-C, pups at day 1, mothers 4 mg/kg s.c.)?
A: significant improvement of the length

Q: What about the “length of the lower limbs (femur, tibia), in words” value (Fgfr3Y367C/+ pups; FIG. 2A-B, pups at day 1, mothers 4 mg/kg s.c.) of the same compound?
A: improvement of the length

Q: What about the “improvement of the size of tibia” value (Fgfr3Y367C/+ pups; [2]) of the same compound?
A: +4.32%

Q: What about the “increase of the length of humerus” value (Fgfr3Y367C/+ pups; [2]) of the same compound?
A: +4.35%

Q: What about the “increase of the length of ulna” value (Fgfr3Y367C/+ pups; [2]) of the same compound?
A: +6.12%

Q: What about the “organization of chondrocytes in the proliferative zone of the growth plate cartilage” value (Fgfr3Y367C/+ pups; [3]) of the same compound?
A: well organized

Q: What about the “size of the hypertrophic chondrocytes in the hypertrophic zone” value (Fgfr3Y367C/+ pups; [3]) of the same compound?
A: increased

Q: What about the placental transfer (Fgfr3Y367C/+ pups; mouse, in vivo) of the same compound?
A: cross the placenta at therapeutic level

Q: What about the “skeletal anomalies that occurred during embryonic stages” value (Fgfr3Y367C/+ pups; treatment during 5 days in pregnant mice) of the same compound?
A: successfully repressed skeletal anomalies
